Experimental data as given in patent publication US11219221B2 (FarmHannong Co., Ltd., priority 2017, dated 2022).
Blank lines part the entries; values can stand above or below the molecule they belong to.

Assays:
[1] = tested on: Thermosynechococcus sp. NK55a PPO CyPPO17, wild type, SEQ ID NO: 3; test: PPO enzyme kinetics (Vmax); type: biochemical; settings: substrate protoporphyrinogen IX
Description: (§1) Thus, PPO proteins of wild type and variants were expressed as fused to MBP and were used for experiments.
(§2) Overall process was performed in dark under nitrogen stream. […] of protoporphyrin IX was dissolved in 20 ml of 20% (v/v) EtOH, and stirred under dark condition for 30 minutes. The obtained protoporphyrin IX solution was put into a 15 ml screw tube in an amount of 800 μl, and flushed with nitrogen gas for 5 minutes. To this, 1.5 g of sodium amalgam was added and vigorously shaken for 2 minutes. The lid was opened to exhaust hydrogen gas in the tube. Thereafter, the lid was closed and incubated for 3 minutes. […] To determine the enzyme activity of PPO protein, a reaction mixture was prepared with the following composition (based on 10 ml): 50 mM Tris-Cl (pH 8.0); 50 mM NaCl; 0.04% (v/v) Tween 20; 40 mM glucose (0.072 g); 5 units glucose oxidase (16.6 mg); and 10 units catalase (1 μl).
(§3) Hundred and eighty microliters of a reaction mixture containing the purified PPO protein were placed in 96 well plates and 20 μl of […] were added. […] The reaction proceeded at room temperature for 30 min and the fluorescence of protoporphyrin IX was measured using Microplate reader (Sense, Hidex) (excitation: 405 nm; emission: 633 nm). […] To this, 2.7 N HCl was added, and the absorbance at 408 nm was measured. A standard curve was generated using standard protoporphyrin IX, and PPO activity was measured by calibration of protoporphyrin IX using the standard curve of protoporphyrin IX.
(§4) Meanwhile, the maximal velocity (Vmax) values of each enzyme were determined in order to evaluate the kinetic characteristics of CyPPO16 and CyPPO17. The initial reaction velocity was measured where the reaction velocity was proportional to concentration by varying the substrate concentration. The amount of produced protoporphyrin IX, the enzyme reaction product, was measured by time course at room temperature for 20 minutes. Vmax values were calculated with the enzyme kinetics analysis program by Michaelis-Menten equation.

[2] = tested on: Spirulina subsalsa PPO CyPPO16, wild type, SEQ ID NO: 1; test: PPO enzyme kinetics (Vmax); type: biochemical; settings: substrate protoporphyrinogen IX
Description: as §1, §2, §3, §4

[3] = tested on: CyPPO16 wild type (SEQ ID NO: 1) in PPO-deficient E. coli BT3(ΔPPO); type: cell-based; settings: LB agar, 37° C., light, 16 to 20 hours
Description: (§5) The mutated CyPPO gene obtained from the Example 2 was transformed to BT3 (ΔPPO) strain which is deficient of PPO activity and cultured in LB media with PPO-inhibiting herbicide, thereby examining whether growth of transformed BT3 was not inhibited.
(§6) BT3 competent cells were transformed with the pET303-CyPPO16 and pET303-CyPPO17 plasmids and those with a mutation(s) constructed in Example 2 respectively, and were cultured in LB agar media containing carbenicillin (Gold Biotechnology, Co., Ltd.).
(§7) Single colony of E. coli transformed with each CyPPO gene was cultured in 3 ml of LB broth containing carbenicillin overnight, and then was subcultured until absorbance (0D600) reached 0.5 to 1. Then, it was diluted with LB broth to OD600=0.5. Again, the diluted solution was serially diluted 4 times by a factor of one tenth.
(§8) The LB agar media (LB 25 g/l, Bacto agar 15 g/l) containing carbenicillin (100 μg/ml) and 0 to 4,000 μM of various herbicides dissolved in DMSO was prepared. Next, 10 μl of each diluted solution was dropped on the plate and cultured at 37° C. under light (Tables 7 and 9, FIGS. 2 to 6, and 18 to 22) or dark (Tables 8 and 10, FIGS. 7 to 17, and 23 to 33) for 16 to 20 hours. Then, extent of tolerance was evaluated.
(§9) The extent of herbicide tolerance of the mutated genes was evaluated by comparing that of mutated genes with that of wild type. The relative tolerance was represented with “+” as a factor of 10 times. Evaluation result was listed in Tables 7 to10 and FIGS. 2 to 33:
(§10) In Tables 7 to 10, tolerance level was presented as of tolerance of wild type and of variants equivalent to that of wild type, and was done as ‘+’ per each 10 fold resistance until ‘+++++’ as maximal resistance. (Tolerance level was evaluated by relative growth level of variants to that of wild type in the media containing highest concentration of herbicide; ‘+’=1-9 fold higher tolerance, ‘++’=10-99 fold higher tolerance, ‘+++’=100-999 fold higher tolerance, ‘++++’=1,000-9,999 fold higher tolerance, ‘+++++’=more than 10,000 fold higher tolerance)

[4] = tested on: CyPPO17 wild type (SEQ ID NO: 3) in PPO-deficient E. coli BT3(ΔPPO); type: cell-based; settings: LB agar, 37° C., light, 16 to 20 hours
Description: as §5, §6, §7, §8, §9, §10

[5] = tested on: CyPPO17 (SEQ ID NO: 3) variant F359I in PPO-deficient E. coli BT3(ΔPPO); type: cell-based; settings: LB agar, 37° C., light, 16 to 20 hours
Description: as §5, §6, §7, §8
(§11) The extent of herbicide tolerance of the mutated genes was evaluated by comparing that of mutated genes with that of wild type. The relative tolerance was represented with “+” as a factor of 10 times.
(§12) In Tables 7 to 10, tolerance level was presented as of tolerance of wild type and of variants equivalent to that of wild type, and was done as ‘+’ per each 10 fold resistance until ‘+++++’ as maximal resistance.

[6] = tested on: CyPPO17 (SEQ ID NO: 3) variant A166C in PPO-deficient E. coli BT3(ΔPPO); type: cell-based; settings: LB agar, 37° C., light, 16 to 20 hours
Description: as §5, §6, §7, §8, §11, §12

[7] = tested on: CyPPO17 (SEQ ID NO: 3) variant A166L in PPO-deficient E. coli BT3(ΔPPO); type: cell-based; settings: LB agar, 37° C., light, 16 to 20 hours
Description: as §5, §6, §7, §8, §11, §12

[8] = tested on: CyPPO16 (SEQ ID NO: 1) variant F360V in PPO-deficient E. coli BT3(ΔPPO); type: cell-based; settings: LB agar, 37° C., light, 16 to 20 hours
Description: as §5, §6, §7, §8, §11, §12

[9] = tested on: CyPPO16 (SEQ ID NO: 1) variant V305M in PPO-deficient E. coli BT3(ΔPPO); type: cell-based; settings: LB agar, 37° C., light, 16 to 20 hours
Description: as §5, §6, §7, §8, §11, §12

[10] = tested on: CyPPO16 (SEQ ID NO: 1) variant A162C in PPO-deficient E. coli BT3(ΔPPO); type: cell-based; settings: LB agar, 37° C., light, 16 to 20 hours
Description: as §5, §6, §7, §8, §11, §12

[11] = tested on: CyPPO17 (SEQ ID NO: 3) variant F359L in PPO-deficient E. coli BT3(ΔPPO); type: cell-based; settings: LB agar, 37° C., light, 16 to 20 hours
Description: as §5, §6, §7, §8, §11, §12

[12] = tested on: CyPPO16 (SEQ ID NO: 1) variant F360C in PPO-deficient E. coli BT3(ΔPPO); type: cell-based; settings: LB agar, 37° C., light, 16 to 20 hours
Description: as §5, §6, §7, §8, §11, §12

[13] = tested on: CyPPO16 (SEQ ID NO: 1) variant F360M in PPO-deficient E. coli BT3(ΔPPO); type: cell-based; settings: LB agar, 37° C., light, 16 to 20 hours
Description: as §5, §6, §7, §8, §11, §12

[14] = tested on: CyPPO16 (SEQ ID NO: 1) variant F360I in PPO-deficient E. coli BT3(ΔPPO); type: cell-based; settings: LB agar, 37° C., light, 16 to 20 hours
Description: as §5, §6, §7, §8, §11, §12

[15] = tested on: CyPPO16 (SEQ ID NO: 1) variant F360L in PPO-deficient E. coli BT3(ΔPPO); type: cell-based; settings: LB agar, 37° C., light, 16 to 20 hours
Description: as §5, §6, §7, §8, §11, §12

[16] = tested on: CyPPO17 (SEQ ID NO: 3) variant V304M in PPO-deficient E. coli BT3(ΔPPO); type: cell-based; settings: LB agar, 37° C., light, 16 to 20 hours
Description: as §5, §6, §7, §8, §11, §12

[17] = tested on: CyPPO17 (SEQ ID NO: 3) variant F359C in PPO-deficient E. coli BT3(ΔPPO); type: cell-based; settings: LB agar, 37° C., light, 16 to 20 hours
Description: as §5, §6, §7, §8, §11, §12

[18] = tested on: CyPPO16 (SEQ ID NO: 1) variant A162L in PPO-deficient E. coli BT3(ΔPPO); type: cell-based; settings: LB agar, 37° C., light, 16 to 20 hours
Description: as §5, §6, §7, §8, §11, §12

[19] = tested on: CyPPO17 (SEQ ID NO: 3) variant F359M in PPO-deficient E. coli BT3(ΔPPO); type: cell-based; settings: LB agar, 37° C., light, 16 to 20 hours
Description: as §5, §6, §7, §8, §11, §12

[20] = tested on: CyPPO17 (SEQ ID NO: 3) variant V304L in PPO-deficient E. coli BT3(ΔPPO); type: cell-based; settings: LB agar, 37° C., light, 16 to 20 hours
Description: as §5, §6, §7, §8, §11, §12

[21] = room temperature, 20 min time course, Michaelis-Menten

Vmax compared with AtPPO1 [1]: more than two times higher
Vmax [1, 21]: 378 nmole mg protein^−1 min^−1
Vmax compared with AtPPO1 [2]: more than two times higher
Vmax [2, 21]: 336 nmole mg protein^−1 min^−1
SMILES: C=Cc1c2[nH]c(c1C)Cc1[nH]c(c(CCC(=O)O)c1C)Cc1[nH]c(c(C)c1CCC(=O)O)Cc1[nH]c(c(C)c1C=C)C2 [protoporphyrinogen IX]

SMILES: CC(C)N(C)S(=O)(=O)NC(=O)c1cc(-n2c(=O)cc(C(F)(F)F)n(C)c2=O)c(F)cc1Cl [saflufenacil]
Herbicide tolerance (relative to wild type) [3]: −
Herbicide tolerance (relative to wild type) [4]: −
Herbicide tolerance (relative to wild type) [5]: +++ (100-999 fold higher tolerance)
Herbicide tolerance (relative to wild type) [6]: +++ (100-999 fold higher tolerance)
Herbicide tolerance (relative to wild type) [7]: +++ (100-999 fold higher tolerance)
Herbicide tolerance (relative to wild type) [8]: +++ (100-999 fold higher tolerance)
Herbicide tolerance (relative to wild type) [9]: +++ (100-999 fold higher tolerance)
Herbicide tolerance (relative to wild type) [10]: +++ (100-999 fold higher tolerance)
Herbicide tolerance (relative to wild type) [11]: +++ (100-999 fold higher tolerance)
Herbicide tolerance (relative to wild type) [12]: +++ (100-999 fold higher tolerance)
Herbicide tolerance (relative to wild type) [13]: +++ (100-999 fold higher tolerance)
Herbicide tolerance (relative to wild type) [14]: +++ (100-999 fold higher tolerance)
Herbicide tolerance (relative to wild type) [15]: +++ (100-999 fold higher tolerance)
Herbicide tolerance (relative to wild type) [16]: +++ (100-999 fold higher tolerance)
Herbicide tolerance (relative to wild type) [17]: +++ (100-999 fold higher tolerance)
Herbicide tolerance (relative to wild type) [18]: +++ (100-999 fold higher tolerance)
Herbicide tolerance (relative to wild type) [19]: +++ (100-999 fold higher tolerance)
Herbicide tolerance (relative to wild type) [20]: + (1-9 fold higher tolerance)
